# According to PMC9551036, “A selective and orally bioavailable VHL-recruiting PROTAC achieves SMARCA2 degradation in vivo” (Nature Communications, 2022):
# Values joined by “and” are separate entries in the source; they are usually repeats but may differ in a detail not shown here. Equal entries are not always repeated. Where two headings read alike, the source gives them in different places.
# How the values were obtained:
# Microsomal stability = assay type: in vitro ADME; details: for Mic. Stab. Human / Mic. Stab. Human QH: human liver microsomes; for Mic. Stab. Mouse / Mic. Stab. Mouse QH: mouse liver microsomes; for Mic. Stab. Rat / Mic. Stab. Rat QH: rat liver microsomes
# Protocol: […] Reactions were terminated by addition of acetonitrile and precipitates separated by centrifugation. Compound concentrations in supernatants were measured by HPLC-MS/MS and clearance was calculated from compound half-lives using the well-stirred liver model.
# [1] = test system: VCB: PROTAC: SMARCA2^BD ternary complex; test: TR-FRET ternary complex affinity and cooperativity, SMARCA2; assay type: binding, human; details: ratio TR-FRET EC50 / TR-FRET EC50 +VCB measured in the same run, SMARCA2BD
# [2] = molecular target: T1, VCB: PROTAC: SMARCA2^BD ternary complex (Homo sapiens, UniProt P51531); test: as above; assay type: binding
# T1 construct: P51531-2, residues 1373-1493 with additional N-terminal SM residues; GST (TEV site) (N); His6 (TEV site) (N, cleaved yes); made in house; host or cells: SMARCA2^BD: Escherichia coli BL21(DE3)
# Solubility testing = assay type: physicochemical; details: for solubility at 24 h: buffer, kinetic from dmso stock
# Protocol: Dilution into a 1:1 mixture of acetonitrile and water was used as reference. After 24 h, the incubations were filtrated, and the filtrate was analyzed by LC-UV.
# [3] = molecular target: VCB: PROTAC: SMARCA2^BD ternary complex (Homo sapiens, UniProt P40337+P51531); test: TR-FRET ternary complex affinity and cooperativity, SMARCA2; assay type: binding; design: P51531-2, residues 1373-1493 with additional N-terminal SM residues; GST (TEV site) (N); His6 (TEV site) (N, cleaved yes); made in house; host or cells: SMARCA2^BD: Escherichia coli BL21(DE3)
# [4] = Bidirectional permeability measurement in Caco-2 cells; assay type: in vitro ADME; details: human
# Protocol: Bidirectional permeability of test compounds across a Caco-2 cell monolayer was measured as described[43] with a modification of preincubation time[44]: Briefly, Caco-2 cells were seeded onto Transwell inserts (#3379, Corning, Wiesbaden, Germany) at a density of 160000 cells/cm^2 and cultured in DMEM (high glucose) containing 10% fetal bovine serum for 14–21 days. Cells were incubated with culture media containing 1 µM test compound for 24 h. […] Samples were taken at different time points for up to 2 h. Test compound in the samples was quantified with LC-MS/MS. To elucidate the role of drug transporter P-gp in the transcellular transport, permeability measurement was performed in the absence and presence of the selective P-gp inhibitor zosuquidar (5 µM final concentration). Apparent permeability coefficients (Papp,AB, Papp,BA) were calculated as follows:1 Papp,AB=Q_AB/C0×s×t 2 Papp,BA=Q_BA/C0×s×t where Q is the amount of compound recovered in the receiver compartment after the incubation time t, C0 the initial compound concentration given to the donor compartment, and s the surface area of the Transwell inserts. Efflux ratio is calculated as the quotient of Papp,BA (mean of duplicate) to Papp,AB (mean of duplicate). […] In addition, Transepithelial electrical resistance (TEER) values were measured for each plate before the permeability assay. All three parameters (efflux of the reference substrates, Papp values of the low permeable compound, and TEER values) were used to ensure the quality of the assays.
# SMARCA2^BD = molecular target: T2, SMARCA2^BD (Homo sapiens, UniProt P51531); test: SPR binding to immobilised SMARCA2 bromodomain; details: benzoxazinone lead series, Fig. 1b; read-out: SMARCA2^BD SPR KD
# T2 construct: P51531-2, residues 1373-1493 with additional N-terminal SM residues; GST (TEV site) (N, cleaved yes); made in house; host or cells: Escherichia coli BL21(DE3)
# Protocol: SMARCA4^BD was provided by the Structural Genomics Consortium (SGC), Toronto[32] and SMARCA2^BD and PRM1^BD5 were synthesised by GeneArt then subcloned into pDEST15 vectors (Invitrogen). The VCB complex was expressed and purified as described previously, with the modification that 0.3 mM IPTG was used for induction of expression. […] Both were stored in 20 mM 4-(2-hydroxyethyl)−1-piperazineethanesulfonic acid (HEPES), 150 mM sodium chloride and 1 mM tris(2-carboxyethyl)phosphine (TCEP) pH 7.5. SMARCA2^BD, SMARCA4^BD and PBRM1^BD5 were expressed in Escherichia coli BL21(DE3) as N-terminal GST fusion proteins with a TEV protease cleavage site. Expression and purification of these proteins has been described previously[32],[33]. Starter cultures were grown overnight at 37 °C in 10 mL of Luria-Bertani (LB) medium with ampicillin (100 μg/mL). The starter cultures were diluted (1:100) in Terrific Broth (TB) medium with ampicillin (100 μg/mL) and grown in a shaking incubator at 37 °C to an optical density (OD600) ~1 before the temperature was lowered for induction (to 23 °C for SMARCA2^BD or 18 °C for SMARCA4^BD and PRRM1^BD5). […] Cells were harvested by centrifugation and stored at −80 °C prior to purification. […] The Lysis buffers were as follows: for SMARCA2^BD: 50 mM HEPES, 500 mM sodium chloride, 5% glycerol, 5 mM dithiothreitol (DTT); for SMARCA4^BD: 25 mM HEPES, 0.3 M sodium chloride, 5% glycerol, 10 mM DTT, pH 7.5; for PBRM1^BD5: 25 mM HEPES, 300 mM sodium chloride, 5% glycerol, 10 mM DTT, pH 7.8; in each case supplemented with complete protease inhibitors (Roche). Affinity purification was performed using Glutathione Sepharose 4B (GE Healthcare) in batch mode or on-column. […] For SMARCA2^BD, prior to TEV protease cleavage the eluted GST-tagged BD was first dialysed into desalting buffer (20 mM HEPES, 250 mM sodium chloride, pH 7.0 + 0.5% glycerol). Where TEV cleavage was performed in solution, a second affinity (GST-trap) column purification step was carried out to remove the GST-tag and uncleaved GST-tagged protein. Proteins were further purified by SEC (HiLoad Superdex-75, 16/600) (GE Healthcare) and stored in Storage buffer (for SMARCA2^BD: 20 mM HEPES, 150 mM sodium chloride, pH 7.5; for SMARCA4^BD: 10 mM HEPES, 0.5 M NaCl, 5% glycerol, pH 7.5; for PBRM1^BD5: 20 mM HEPES, 300 mM NaCl, 5 mM DTT, pH 7.8). For AlphaScreen assays, eluted GST-tagged BDs were purified directly by SEC in the respective storage buffers without TEV cleavage. All chromatography purification steps were performed either at room temperature or 4 °C using an ÄKTA FPLC purification system (GE Healthcare) or a plastic Econo-Pac column (Bio-Rad).
# SPR data were acquired on Biacore 8K or T200 instruments (Cytiva). Target proteins were immobilised at 25 °C on CM5 chips by amine coupling (EDC/NHS, Cytiva) in HBS-P+ running buffer (pH 7.4), containing 2 mM TCEP. […] The reference surface was subsequently deactivated using 1 M ethanolamine. […] Biotinylated VCB was prepared as previously described[27]: in brief, the complex was mixed 1:1 with EZ-Link NHS–PEG4–biotin (Thermo Scientific) and incubated at room temperature for 1 h. Unreacted NHS-biotin was removed using a PD-10 desalting column (Cytiva) into 20 mM HEPES, pH 7.5, 150 mM sodium chloride and 1 mM DTT. The reference surface was generated by deactivating the EDC/NHS-treated surface with 1 M ethanolamine. All interaction experiments were done at 6 °C in running buffer (20 mM TRIS, pH 8.3, 150 mM potassium chloride, 2 mM magnesium chloride, 2 mM TCEP, 0.005% TWEEN 20, 1% dimethyl sulfoxide). For ternary complex measurements, a sensor chip surface with VCB immobilised was used (preparation as described above). Experiments were run in dual-inject mode with 10 µM SMARCA present during the injection and dissociation phase. Sensorgrams from reference surfaces and blank injections were subtracted from the raw data prior to data analysis using Biacore Insight software.
# T2 sequence (P51531 1373-1493 isoform P51531-2): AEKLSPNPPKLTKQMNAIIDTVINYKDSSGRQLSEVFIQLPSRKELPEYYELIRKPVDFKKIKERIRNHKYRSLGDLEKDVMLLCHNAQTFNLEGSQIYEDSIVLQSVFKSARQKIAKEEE
# T1 sequence (P51531 with tags, fused parts or gaps isoform P51531-2): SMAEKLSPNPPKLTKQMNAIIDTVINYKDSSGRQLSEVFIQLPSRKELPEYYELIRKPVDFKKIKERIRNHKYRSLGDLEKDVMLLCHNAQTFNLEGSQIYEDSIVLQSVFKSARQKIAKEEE
# Sequence of VCB: PROTAC: SMARCA2^BD ternary complex (Homo sapiens, UniProt P40337+P51531) (P51531 with tags, fused parts or gaps isoform P51531-2): as above
# Sequence of VCB: PROTAC: SMARCA2^BD ternary complex (Homo sapiens, UniProt P40337+P51531) (P40337 54-213): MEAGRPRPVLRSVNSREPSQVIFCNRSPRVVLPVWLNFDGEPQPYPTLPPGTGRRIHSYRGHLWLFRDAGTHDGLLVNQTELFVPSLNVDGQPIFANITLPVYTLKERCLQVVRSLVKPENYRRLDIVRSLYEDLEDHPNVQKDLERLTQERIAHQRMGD
# Sequence of VCB: PROTAC: SMARCA2^BD ternary complex (Homo sapiens, UniProt P40337+P51531) (Q15369 17-112 partner): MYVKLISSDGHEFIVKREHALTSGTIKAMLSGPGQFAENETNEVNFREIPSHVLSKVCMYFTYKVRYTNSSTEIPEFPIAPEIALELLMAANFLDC
# Sequence of VCB: PROTAC: SMARCA2^BD ternary complex (Homo sapiens, UniProt P40337+P51531) (Q15370 1-104 partner): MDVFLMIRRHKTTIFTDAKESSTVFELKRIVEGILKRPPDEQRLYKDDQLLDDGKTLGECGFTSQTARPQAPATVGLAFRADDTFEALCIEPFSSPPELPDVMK
compound,measurement,setting,value
O=c1nc2n(C3CCCC3)c3cc(C4CCNCC4)ccc3n2c2cccc(Br)c12 [compound 4],Mic. Stab. Human,Microsomal stability,<24 % QH
same,Mic. Stab. Human QH,Microsomal stability,<24.400%
same,Mic. Stab. Mouse,Microsomal stability,<24 % QH
same,Mic. Stab. Mouse QH,Microsomal stability,25.670%
same,Mic. Stab. Rat,Microsomal stability,<23 % QH
same,Mic. Stab. Rat QH,Microsomal stability,<23.080%
same,cooperativity α (SMARCA2BD),[1],1.2
same,EC50,"[2]; SMARCA2 BD EC50, binary, PROTAC alone, individual replicates",0.0884 µM
same,EC50,"[2]; TR-FRET SMARCA2BD EC50, TR-FRET competition for SMARCA2BD, without VCB, mean ± SD",0.088 µM
same,solubility at 24 h,"Solubility testing; pH 4.5, aqueous buffer, pH 4.5, read-out: Solubility pH 4.5",85 µg/mL
same,solubility at 24 h,"Solubility testing; pH 6.8, aqueous buffer, pH 6.8, read-out: Solubility pH 6.8",79 µg/mL
same,EC50,"[3]; TR-FRET Ternary SMARCA2BD EC50 (PROTAC + VCB), TR-FRET competition for SMARCA2BD, + VCB, mean ± SD",0.074 µM
same,EC50,"[3]; Ternary SMARCA2 BD EC50 (PROTAC + VCB), PROTAC + VCB, individual replicates",0.0735 µM
same,Papp A→B at 1 µM,"[4]; Caco-2, pH 7.4, Caco-2, a to b, read-out: Caco-2 Pab",2.55 ×10⁻⁶ cm/s
same,Papp B→A at 1 µM,"[4]; Caco-2, pH 7.4, Caco-2, b to a, read-out: Caco-2 Pba",32.6 ×10⁻⁶ cm/s
same,"efflux ratio at 2 h, 1 µM","[4]; Caco-2, pH 7.4, Caco-2, read-out: Caco-2 Efflux ratio",12.8
CN1CCN(c2nc(=O)c3c(F)cccc3o2)CC1 [R = F],Kd,SMARCA2^BD,> 25 µM
CN1CCN(c2nc(=O)c3ccccc3o2)CC1 [R = H],Kd,SMARCA2^BD,> 25 µM
CN1CCN(c2nc(=O)c3c(Cl)cccc3o2)CC1 [R = Cl],Kd,SMARCA2^BD,25 µM
CN1CCN(c2nc(=O)c3c(Br)cccc3o2)CC1 [R = Br],Kd,SMARCA2^BD,9 µM
Cc1ncsc1-c1ccc([C@@H](COCCN2CCC(c3ccc4c(c3)n(C3CCCC3)c3nc(=O)c5c(Br)cccc5n43)CC2)NC(=O)[C@@H]2C[C@@H](O)CN2C(=O)[C@@H](NC(=O)C2(F)CC2)C(C)(C)C)cc1 [compound 24],Mic. Stab. Human,Microsomal stability,59 ± 0.4 % QH
same,Mic. Stab. Human QH,Microsomal stability,59.130% and 58.510%
same,Mic. Stab. Mouse,Microsomal stability,40 ± 2 % QH
same,Mic. Stab. Mouse QH,Microsomal stability,38.210% and 41.130%
same,Mic. Stab. Rat,Microsomal stability,31 % QH
same,Mic. Stab. Rat QH,Microsomal stability,< 23.080% and 30.780%
same,Solubility pH 4.5,Solubility testing; pH 4.5,<1.000 <1.000 ug/mL
same,Solubility pH 6.8,Solubility testing; pH 6.8,<1.000 <1.000 ug/mL
CN1CCN(c2nc(=O)c3c(I)cccc3o2)CC1 [R = I],Kd,SMARCA2^BD,18 µM
